From patent EP3263134A1, “COMPOSITION FOR PREVENTING OR TREATING VALVE CALCIFICATION, CONTAINING DPP-4 INHIBITOR” (The Asan Foundation, priority 2015, dated 2016)

How the values were obtained:
[1] = test system: NF-κB; assay: NF-κB activity in VSMCs; type: cell-based; conditions: wild-type or eNOS-/- mouse VSMCs (FIG. 7d)
Source text: NF-κB activity in VSMCs is inhibited by NO. It was shown that NF-κB activity was higher in eNOS-/- mouse VSMCs than in wild-type mouse VSMCs, and this activity was reduced by treatment with DETA-NO (FIG. 7d). Because the DPP4 promoter has a putative NF-κB binding site, the present inventors determined whether NF-κB activity could directly regulate DPP-4 promoter activity.

[2] = test system: DPP-4 promoter; assay: DPP-4 promoter activity in VSMCs (luciferase reporter); type: cell-based; conditions: wild-type or eNOS-/- mouse VSMCs (FIG. 7c)
Procedure: To obtain more direct evidence for the regulatory function of NO in a decrease in DPP-4 expression, it was determined whether DPP-4 promoter activity would be regulated by NO.
First, VSMCs were cultured in a 6-well plate to reach a confluency of 80%. Using Lipofectamine2000 (Life Technology), a DPP-4 reporter containing a normal or mutated NF-κB binding site was cloned into a pGL3-basic vector (Promega), and the cells were transfected with the vector. After 24 hours, firefly and Renilla luciferase activities in the cells were measured using a Dual-Glo luciferase assay system, (Promega). The firefly luciferase activity was normalized with the Renilla luciferase activity.

[3] = test system: DPP-4; assay: DPP-4 mRNA and protein expression in VSMCs (RT-PCR, immunoblot); type: cell-based, mouse
Procedure: (§1) The aortas, extracted from the eNOS-/- mice and the wild-type mice together with the hearts in Example 2, were washed in serum-free M199 (Cellgro), cut to small pieces, and then cultured in M199 containing 20% fetal calf serum and 3 mg/mL collagenase (Sigma) in a water bath at 37°C for 3 hours. […] The isolated vascular smooth muscle cells were seeded at a concentration of 30%, and after 24 hours, the medium was replaced with osteogenic basal medium (Osteogenic SingleQuots, Lonza, USA). The medium was replaced at 3-day intervals during 28 days of culture.
In this Example, vascular smooth muscle cells obtained according to the method of Example 3 were treated with DETA-NONOate (DETA-NO) that is an NO donor.

[4] = test system: DPP-4; conditions: stated as known; cited from earlier work
[5] = test system: eNOS-/- mouse VSMCs (vascular smooth muscle cells); assay: ALP activity, inhibition of osteogenic differentiation of VSMCs; type: cell-based; parameters: dose or concentration left out as unconfirmed; conditions: of each inhibitor for 7 days, 48-well plate, compared to negative control group not treated with the DPP-4 inhibitor
Procedure: as §1
In order to examine the effects of DPP-4 inhibitors other than sitagliptin on the inhibition of valvular calcification, the effects of treatment with various kinds of DPP-4 inhibitors on the inhibition of osteogenic differentiation of eNOS-/- mouse VSMCs (vascular smooth muscle cells) were evaluated.
eNOS-/- mouse VSMCs cultured in a 48-well plate were treated with […] of each of alogliptin, evogliptin, linaglipin, saxagliptin and vildagliptin for 7 days, and ALP activity in the cells was measured. As a result, ALP activity inhibition of 50% or lower compared to that in a negative control group not treated with the DPP-4 inhibitor was observed.

[6] = test system: Human aortic valvular interstitial cells (VICs); assay: Osteoblast differentiation (osteogenic ability) of human valvular interstitial cells; type: cell-based; conditions: human VICs treated with DPP-4 plus sitagliptin (FIG. 11)
Procedure: Using human VICs, the role of DPP-4 in osteoblast differentiation was analyzed.
Human VICs were isolated from aortic valve leaflets according to a conventional cell isolation method, and VIC cells at passage 2 to 10 were used. The VIC cells were incubated with DPP-4 (R & D), sitagliptin or DETA-NONOate (Enzo Life Sciences).

[7] = test system: eNOS-/- mice; assay: Osteosense680 imaging of aortic calcification / osteogenic activity after oral administration; type: in vivo; conditions: oral sitagliptin 15 mg/kg/day for 12 weeks, Osteosense680 imaging (FIGS. 9a, 9b)
Procedure: (§2) C57BL/6J eNOS-/- (endothelial nitric oxide synthase knockout) mice (8-week old, n = 10, The Jackson Laboratory, Bar Harbor, Me, USA) and C57BL/6J wild-type mice (8-week old, wide type, WT, n = 10) were used. After purchase, the mice were fed with standard rodent feed up to 3 months of age, and administered with saline or sitagliptin (15 mg/kg/ day, Merck & Co., Inc.) for 12 weeks.
To detect osteogenic activity in the eNOS-/- mice, a bisphosphonate-conjugated imaging agent (Osteosense680, VisEn Medical Inc.) was injected via the tail vein. Osteosense680 binds to a calcified site (particularly hydroxyapatite) in vivo and acts as an imaging agent to detect osteoblast activity. The mice were euthanized, and then the whole body or isolated aortas were imaged using OptixMX3 (ART Advanced Research Technologies, Inc).

[8] = test system: aortic valves from the eNOS-/- mice; assay: von Kossa (VK) staining of aortic valve sections; type: in vivo; conditions: eNOS-/- mice after administration of sitagliptin (FIGS. 10a, 10b)
Procedure: Human aortic valve samples were fixed in 4% formalin solution for 24 hours, and then embedded in paraffin and sectioned to a thickness of 4 µm. In order to observe calcium deposition in the paraffin-embedded aortic valve and the cardiac basal segment, Von Kossa (VK) staining and Alizarin red (AR) staining were performed. For Von Kossa staining, the aortic valve fixed in formalin was washed with distilled water, and then exposed to 5% water-soluble AgNO3 and intense light at room temperature for 60 minutes.
as §2

With `NCCN(CCN)[N+]([O-])=NO` [DETA-NO, DETA-NONOate] the NF-κB activity [1] was “reduced”, the DPP-4 promoter activity [2] was “inhibited by treatment with DETA-NO in a concentration-dependent manner” and the “expression of DPP-4 mRNA in the VSMCs” value ([3]; RT-PCR after 24 hours of treatment with DETA-NO (FIG. 7a)) was “decreased”. For the same compound, the “expression of DPP-4 protein in the VSMCs” value ([3]; immunoblot after 48 hours of treatment with DETA-NO (FIG. 7b)) was “also decreased”.

For `COC(=O)[C@@H](N)CCCNC(=N)N[N+](=O)[O-]` [L-NAME, Nω-nitro-L-arginine methyl ester], the “DPP-4 expression in the aorta” value [4] is listed as “significantly increases DPP-4 expression in the aorta”.

Work on `Cn1c(=O)cc(N2CCC[C@@H](N)C2)n(Cc2ccccc2C#N)c1=O` [alogliptin] yielded an ALP activity inhibition [5] of at most 50%.

In the case of `CC(C)(C)OC[C@@H]1C(=O)NCCN1C(=O)C[C@H](N)Cc1cc(F)c(F)cc1F` [evogliptin], the ALP activity inhibition [5] is reported as at most 50%.

In the case of `CC#CCn1c(N2CCC[C@@H](N)C2)nc2c1c(=O)n(Cc1nc(C)c3ccccc3n1)c(=O)n2C` [linaglipin], the ALP activity inhibition [5] is reported as at most 50%.

Compound `N#C[C@@H]1C[C@@H]2C[C@@H]2N1C(=O)[C@@H](N)C12CC3CC(CC(O)(C3)C1)C2` [saxagliptin] has an ALP activity inhibition [5] of at most 50%.

With `N[C@@H](CC(=O)N1CCn2c(nnc2C(F)(F)F)C1)Cc1cc(F)c(F)cc1F` [sitagliptin] the “DPP-4-induced increase of the osteogenic ability of VICs” value [6] was “eliminated”, the “aortic calcification in the living mice” value [7] was “reduced aortic calcification” and the “aortic calcification in VK-stained sections of the aortic valves” value [8] was “aortic calcification can be inhibited”.

Work on `N#C[C@@H]1CCCN1C(=O)CNC12CC3CC(CC(O)(C3)C1)C2` [vildagliptin] yielded an ALP activity inhibition [5] of at most 50%.
